Data reported in PubChem BioAssay (NCI).
Where “and” joins values, the source holds several entries; their conditions need not be identical. Equal entries are not always repeated.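 48-hour exposure; five concentrations; linearly interpolated endpoints. GI50 is the concentration that inhibits growth by half. TGI denotes the concentration required for complete inhibition of growth.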

How the values were obtained:
Assay in all cases: NCI anticancer screen, dose series, 48 h
[1] = tested on: A549 NSCLC
[2] = tested on: CCRF-CEM leukemia
[3] = tested on: HOP-92 NSCLC
[4] = tested on: HS 578T breast
[5] = tested on: K-562 leukemia
[6] = tested on: M14 melanoma
[7] = tested on: RXF 393 renal
[8] = tested on: SK-MEL-2 melanoma
[9] = tested on: SNB-19 CNS
[10] = tested on: SR leukemia

Cc1nn(C)c2ncnc(N/N=C/c3cccc(O)c3O)c12
GI50 [1]: 2.11 µM
TGI [1]: > 100 µM
GI50 [2]: 0.179 µM
TGI [2]: > 52.8 µM
GI50 [3]: 0.747 µM
TGI [3]: 13.8 µM
GI50 [4]: 2.29 µM
TGI [4]: > 100 µM
GI50 [5]: 0.387 µM
TGI [5]: > 100 µM
GI50 [6]: 0.259 µM
TGI [6]: 1.72 µM
GI50 [7]: 0.513 µM
TGI [7]: > 27.7 µM
GI50 [8]: 2.98 µM
TGI [8]: > 76.3 µM
GI50 [9]: 0.664 µM
TGI [9]: > 48.4 µM
GI50 [10]: 0.269 µM
TGI [10]: 16.3 µM

CCN1CCN(c2cc(C(=O)Nc3cccc(Nc4ccc5c(OC)cccc5n4)c3)cc(C(F)(F)F)c2)CC1
GI50 [1]: 1.05 µM
TGI [1]: 5.28 µM
GI50 [2]: 0.758 µM
TGI [2]: 2.06 µM
GI50 [3]: 1.26 µM
TGI [3]: 4.66 µM
GI50 [4]: 3.61 µM
TGI [4]: 11.9 µM
GI50 [5]: 0.91 µM
TGI [5]: 2.77 µM
GI50 [6]: 0.668 µM
TGI [6]: 1.65 µM
GI50 [7]: 0.918 µM
TGI [7]: 4.86 µM
GI50 [8]: 5.3 µM
TGI [8]: 11 µM
GI50 [9]: 2.1 µM
TGI [9]: 7.01 µM
GI50 [10]: 0.883 µM
TGI [10]: 11.7 µM

COc1cc(Cl)c(CC(=O)c2c[nH]c3ccccc23)cc1OC
TGI [1]: > 100 µM
TGI [2]: > 57.5 µM
TGI [3]: 15.6 µM
TGI [4]: > 100 µM
TGI [5]: > 100 µM
TGI [6]: > 100 µM
TGI [7]: 40.9 µM
TGI [8]: > 100 µM
TGI [9]: > 95 µM
TGI [10]: > 100 µM

O=c1cc(-c2ccccc2)[nH]c2c1CCCC2
GI50 [1]: 4.55 µM
TGI [1]: > 100 µM
GI50 [2]: 3.4 µM
TGI [2]: > 100 µM
GI50 [4]: 2.01 µM
TGI [4]: 8.56 µM
GI50 [5]: 0.85 µM
TGI [5]: > 100 µM
GI50 [6]: 1.5 µM
TGI [6]: 5.68 µM
GI50 [7]: 1.8 µM
TGI [7]: 5.53 µM
GI50 [8]: 4.19 µM
TGI [8]: > 100 µM
GI50 [9]: 8.9 µM
TGI [9]: > 100 µM
GI50 [10]: 0.835 µM
TGI [10]: > 100 µM

NC1=NC(SCc2ccccc2CCl)c2ncn(Cc3ccccc3CCl)c2N1 (stereo not given)
GI50 [1]: 2.04 µM
TGI [1]: 5.01 µM
GI50 [2]: 1.79 µM
TGI [2]: 5.68 µM
GI50 [3]: 1.1 µM
TGI [3]: 2.39 µM
GI50 [4]: 3.51 µM
TGI [4]: > 100 µM
GI50 [5]: 2.35 µM
TGI [5]: 10.2 µM
GI50 [7]: 1.48 µM
TGI [7]: 2.85 µM
GI50 [8]: 2.06 µM
TGI [8]: 4.89 µM
GI50 [9]: 4.83 µM
TGI [9]: 23.2 µM
GI50 [10]: 1.56 µM
TGI [10]: 6.46 µM

CCOC(=O)c1c(-c2ccccc2)[n+](=O)c2cc(F)c(F)cc2n1[O-]
GI50 [1]: 2.14 µM
TGI [1]: 4.46 µM
GI50 [3]: 1.14 µM
TGI [3]: 2.73 µM
GI50 [4]: 2.38 µM
TGI [4]: 6.26 µM
GI50 [5]: 0.702 µM
TGI [5]: > 100 µM
GI50 [6]: 1.11 µM
TGI [6]: 2.34 µM
GI50 [7]: 1.38 µM
TGI [7]: 4.1 µM
GI50 [8]: 3.47 µM
TGI [8]: > 100 µM
GI50 [9]: 1.95 µM
TGI [9]: 3.45 µM
GI50 [10]: 0.187 µM
TGI [10]: > 100 µM

O=C1OCC2=C1C(c1cccc(C(F)(F)F)c1)c1cc3c(cc1N2CCO)OCCO3 (stereo not given)
GI50 [1]: 1.53 µM
TGI [1]: > 33.3 µM
GI50 [2]: 1.5 µM
TGI [2]: > 33.3 µM
GI50 [3]: 2.7 µM
TGI [3]: > 33.3 µM
GI50 [4]: 0.915 µM
TGI [4]: > 33.3 µM
GI50 [5]: 0.881 µM
TGI [5]: > 33.3 µM
GI50 [6]: 0.967 µM
TGI [6]: > 33.3 µM
GI50 [8]: 1.99 µM
TGI [8]: > 33.3 µM
GI50 [9]: 1.63 µM
TGI [9]: > 33.3 µM
GI50 [10]: 1.04 µM
TGI [10]: > 33.3 µM

COc1cc(/C=C/C(=O)CC(=O)/C=C/c2cc(OC)c(O)c(OC)c2)cc(OC)c1O
GI50 [1]: 16.6 µM
TGI [1]: 25 µM and > 100 µM
GI50 [2]: 4.01 µM
TGI [2]: > 25 µM and 64.8 µM
GI50 [4]: 5.73 µM
TGI [4]: 18 µM and 53.8 µM
TGI [5]: 25 µM and > 100 µM
GI50 [6]: 10.4 µM
TGI [6]: 25 µM and 28 µM
GI50 [7]: 2.63 µM
TGI [7]: 7.3 µM and 16.1 µM
GI50 [8]: 4.24 µM
TGI [8]: 16.3 µM and 16.6 µM
TGI [9]: 25 µM and > 100 µM
GI50 [10]: 7.56 µM
TGI [10]: 25 µM and > 100 µM

O=C1C=CC(=O)c2c1ccc1c3ccccc3n(Cc3ccccc3)c21
TGI [1]: > 100 µM
TGI [2]: 10.9 µM
TGI [4]: > 100 µM
TGI [5]: 10.6 µM
TGI [6]: 42 µM
TGI [7]: 32.8 µM
TGI [8]: 99.6 µM
TGI [9]: > 100 µM
TGI [10]: > 28.7 µM

CCN(CC)CCCNCc1cc(-c2ccccc2)nc2cc(Cl)ccc12
GI50 [1]: 7.02 µM
TGI [1]: 21.2 µM
GI50 [3]: 1.16 µM
TGI [3]: 5.02 µM
GI50 [4]: 2.01 µM
TGI [4]: 5.29 µM
GI50 [5]: 1.94 µM
TGI [5]: 6.61 µM
GI50 [6]: 1.92 µM
TGI [6]: 3.63 µM
GI50 [7]: 2.91 µM
TGI [7]: 7.2 µM
GI50 [8]: 2.32 µM
TGI [8]: 4.55 µM
GI50 [9]: 10.2 µM
TGI [9]: 25.6 µM
GI50 [10]: 0.716 µM
TGI [10]: 5.38 µM

CC(C)C1(NC(=O)C2CC3c4cccc5[nH]cc(c45)CC3N(C)C2)OC2(O)C3CCCN3C(=O)C(Cc3ccccc3)N2C1=O (stereo not given)
TGI [1]: > 100 µM
TGI [2]: > 100 µM
TGI [3]: > 100 µM
TGI [4]: > 100 µM
TGI [6]: > 100 µM
TGI [8]: > 100 µM
TGI [9]: > 100 µM
TGI [10]: 41.2 µM

Cc1nc(NS(=O)(=O)c2ccc(NCN3C(=O)c4ccccc4C3=O)cc2)oc1C
GI50 [1]: > 100 µM
TGI [1]: > 100 µM
GI50 [2]: 0.0113 µM
TGI [2]: 0.0422 µM
GI50 [4]: > 100 µM
TGI [4]: > 100 µM
GI50 [5]: > 100 µM
TGI [5]: > 100 µM
GI50 [6]: > 100 µM
TGI [6]: > 100 µM
GI50 [7]: > 100 µM
TGI [7]: > 100 µM
GI50 [8]: > 100 µM
TGI [8]: > 100 µM
GI50 [9]: > 100 µM
TGI [9]: > 100 µM
GI50 [10]: > 100 µM
TGI [10]: > 100 µM

CC(C)=Cc1cc(C)c2ccc(C)c3c2c1C(C)=C(O)C3=O
GI50 [1]: 32 µM
TGI [1]: > 100 µM
GI50 [2]: 4.45 µM
TGI [2]: 19.7 µM
GI50 [4]: 25.7 µM
TGI [4]: 74.9 µM
GI50 [5]: 10.3 µM
TGI [5]: 24.7 µM
GI50 [6]: 20.1 µM
TGI [6]: 45.7 µM
GI50 [7]: 41.9 µM
TGI [7]: > 100 µM
GI50 [8]: 25.7 µM
TGI [8]: 82.3 µM
GI50 [9]: 23.1 µM
TGI [9]: 75.6 µM
GI50 [10]: 1.46 µM
TGI [10]: 4.17 µM

C=C(C)[C@@H]1CCc2c(O)c(O)c(=O)cc(C)c2C1
TGI [1]: > 100 µM
TGI [3]: 17 µM
TGI [4]: > 100 µM
TGI [5]: > 27.6 µM
TGI [6]: > 100 µM
TGI [7]: > 21.2 µM
TGI [8]: > 100 µM
TGI [9]: > 100 µM
TGI [10]: > 20.3 µM

CC(=O)c1c[nH]c2ccc(-c3ccnc(Nc4ccc(NC(=O)C5CCCC5)c(CN5CCOCC5)c4)n3)cc12
GI50 [1]: 0.0312 µM
TGI [1]: 1.54 µM
GI50 [2]: 0.0294 µM
GI50 [3]: 0.0284 µM
TGI [3]: 0.365 µM
GI50 [4]: 0.0207 µM
TGI [4]: 0.105 µM
GI50 [5]: 0.041 µM
TGI [5]: > 100 µM
GI50 [6]: 0.0274 µM
TGI [6]: 0.0955 µM
GI50 [7]: 0.0114 µM
TGI [7]: 0.036 µM
GI50 [8]: 0.0222 µM
TGI [8]: 0.0585 µM
GI50 [9]: 0.041 µM
TGI [9]: 7.96 µM
